These results are taken from patent US8927587B2, “Chemical compounds” (Pfizer Limited, priority 2012, dated 2015).

The target of the assay is T1, hNav1.8 (Homo sapiens, UniProt Q9Y5Y9).
T1 construct: host or cells: HEK cells, stably transfected
T1 sequence (Q9Y5Y9 whole entry): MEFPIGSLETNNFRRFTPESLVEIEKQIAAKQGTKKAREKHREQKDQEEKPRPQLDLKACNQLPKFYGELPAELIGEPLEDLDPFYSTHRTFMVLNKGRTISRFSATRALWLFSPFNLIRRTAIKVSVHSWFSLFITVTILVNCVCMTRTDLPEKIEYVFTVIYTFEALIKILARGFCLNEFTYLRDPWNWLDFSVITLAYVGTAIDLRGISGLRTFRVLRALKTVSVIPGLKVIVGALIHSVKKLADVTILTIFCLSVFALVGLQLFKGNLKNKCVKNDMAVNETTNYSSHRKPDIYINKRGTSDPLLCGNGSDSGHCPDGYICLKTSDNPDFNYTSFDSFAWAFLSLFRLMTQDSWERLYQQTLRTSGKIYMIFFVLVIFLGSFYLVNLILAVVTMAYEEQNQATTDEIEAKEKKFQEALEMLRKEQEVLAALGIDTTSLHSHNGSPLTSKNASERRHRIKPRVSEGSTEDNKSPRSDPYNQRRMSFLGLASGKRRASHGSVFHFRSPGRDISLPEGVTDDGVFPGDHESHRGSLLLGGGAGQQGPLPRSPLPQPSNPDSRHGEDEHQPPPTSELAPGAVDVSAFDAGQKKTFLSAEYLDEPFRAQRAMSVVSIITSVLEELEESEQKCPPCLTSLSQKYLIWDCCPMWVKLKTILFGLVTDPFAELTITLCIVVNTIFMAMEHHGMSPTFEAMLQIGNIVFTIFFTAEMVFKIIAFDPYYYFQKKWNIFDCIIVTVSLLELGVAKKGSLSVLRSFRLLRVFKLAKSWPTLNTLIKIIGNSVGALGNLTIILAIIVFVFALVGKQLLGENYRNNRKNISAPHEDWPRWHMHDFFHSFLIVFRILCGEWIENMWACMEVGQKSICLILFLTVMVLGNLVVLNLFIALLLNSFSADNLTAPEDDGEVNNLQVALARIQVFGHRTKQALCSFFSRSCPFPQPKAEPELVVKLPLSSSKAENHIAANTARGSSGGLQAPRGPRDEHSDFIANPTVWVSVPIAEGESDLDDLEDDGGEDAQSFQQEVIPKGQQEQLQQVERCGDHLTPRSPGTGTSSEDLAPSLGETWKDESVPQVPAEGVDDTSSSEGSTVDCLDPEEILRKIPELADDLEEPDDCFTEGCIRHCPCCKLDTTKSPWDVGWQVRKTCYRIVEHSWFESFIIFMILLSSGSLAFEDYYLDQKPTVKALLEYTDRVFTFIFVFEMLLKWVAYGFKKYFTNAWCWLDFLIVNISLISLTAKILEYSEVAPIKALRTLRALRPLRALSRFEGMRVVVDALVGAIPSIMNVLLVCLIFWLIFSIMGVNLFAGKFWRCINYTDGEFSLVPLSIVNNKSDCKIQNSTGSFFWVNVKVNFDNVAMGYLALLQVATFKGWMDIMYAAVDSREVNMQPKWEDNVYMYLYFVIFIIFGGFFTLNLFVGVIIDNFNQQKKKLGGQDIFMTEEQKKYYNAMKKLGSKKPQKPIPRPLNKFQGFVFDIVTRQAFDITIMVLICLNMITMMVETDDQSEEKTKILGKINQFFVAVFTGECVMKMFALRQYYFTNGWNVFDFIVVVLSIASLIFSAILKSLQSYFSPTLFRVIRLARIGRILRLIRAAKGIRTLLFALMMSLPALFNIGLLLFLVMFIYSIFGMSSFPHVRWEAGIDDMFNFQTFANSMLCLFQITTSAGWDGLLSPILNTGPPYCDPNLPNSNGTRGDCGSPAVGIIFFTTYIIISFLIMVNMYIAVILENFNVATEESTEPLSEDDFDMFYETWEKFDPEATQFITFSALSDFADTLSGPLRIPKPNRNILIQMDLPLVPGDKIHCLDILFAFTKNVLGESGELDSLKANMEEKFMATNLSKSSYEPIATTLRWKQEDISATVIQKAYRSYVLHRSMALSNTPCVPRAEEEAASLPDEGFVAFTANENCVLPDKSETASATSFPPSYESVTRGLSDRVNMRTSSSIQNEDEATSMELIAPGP
Briefly: hNav1.8 whole-cell patch-clamp electrophysiology (conventional or PatchXpress 7000) in stably transfected HEK cells. It counts as cell-based. The conditions noted are these: estimated IC50 calculated from single point % inhibition; HEK cells expressing hNav1.8; 8 sec prepulse to V1/2, 20 msec step to 0 mV; average of replicates; read-out: Nav1.8 EIC50. An excerpt: The ability of the benzimidazole derivatives of the formula (I) to inhibit the Nav1.8 channel may be measured using the assay described below.
HEK cells stably transfected with hNav1.8, purchased from Millipore (Millipore Corp., Billerica, Mass. 01821), were maintained according to manufacturer's instructions. For electrophysiological studies, cells were removed from the culture flask by brief trypsinization and re-plated at low density onto glass cover slips. Cells were typically used for electrophysiological experiments within 24 to 72 h after plating.
Cover slips containing HEK cells expressing hNav1.8 were placed in a bath on the stage of an inverted microscope and perfused (approximately 1 ml/min) with extracellular solution of the following composition: 138 mM NaCl, 2 mM CaCl2, 5.4 mM KCl, 1 mM MgCl2, 10 mM glucose, and 10 mM HEPES, pH 7.4, with NaOH. […] The osmolarity of the extracellular and intracellular solutions was 300 mOsm/kg and 295 mOsm/kg, respectively. All recordings were made at room temperature (22-24° C.) using AXOPATCH 200B amplifiers and PCLAMP software (Axon Instruments, Burlingame, Calif.).
hNav1.8 currents in HEK cells were measured using the whole-cell configuration of the patch-clamp technique (Hamill et al., 1981). Uncompensated series resistance was typically 2 to 5 mega ohms and >85% series resistance compensation was routinely achieved. As a result, voltage errors were negligible and no correction was applied. Current records were acquired at 20 to 50 KHz and filtered at 5 to 10 KHz.
HEK cells stably transfected with hNav1.8 were viewed under Hoffman contrast optics and placed in front of an array of flow pipes emitting either control or compound-containing extracellular solutions. All compounds were dissolved in dimethyl sulfoxide to make 10 mM stock solutions, which were then diluted into extracellular solution to attain the final concentrations desired.
The voltage-dependence of inactivation was determined by applying a series of depolarizing prepulses (8 sec long in 10 mV increments) from a negative holding potential. The voltage was then immediately stepped to 0 mV to assess the magnitude of the sodium current. Currents elicited at 0 mV were plotted as a function of prepulse potential to allow estimation of the voltage at which 50% of the channels were inactivated (midpoint of inactivation or V1/2). Compounds were tested for their ability to inhibit hNav1.8 sodium channels by activating the channel with a 20 msec voltage step to 0 mV following an 8 second conditioning prepulse to the empirically determined V1/2. Compound effect (% inhibition) was determined by difference in current amplitude before and after application of test compounds. For ease of comparison, “estimated IC50” values were calculated from single point electrophysiology data by the following equation, (tested concentration, uM)×(100-% inhibition/% inhibition). Inhibition values<20% and >80% were excluded from the calculation.
In some cases electrophysiological assays were conducted with PatchXpress 7000 hardware and associated software (Molecular Devices Corp). All assay buffers and solutions were identical to those used in conventional whole-cell voltage clamp experiments described above. hNav1.8 cells were grown as above to 50%-80% confluency and harvested by trypsinization. Trypsinized cells were washed and resuspended in extracellular buffer at a concentration of 1×10^6 cells/ml. The onboard liquid handling facility of the PatchXpress was used for dispensing cells and application of test compounds. Determination of the voltage midpoint of inactivation was as described for conventional whole-cell recordings. Cells were then voltage-clamped to the empirically determined V1/2 and current was activated by a 20 msec voltage step to 0 mV.
Estimated IC50 values for the compounds of formula (I) exemplified above are as follows. […]
With `C[C@@H](C(N)=O)[C@H](N)c1nc2cc(C(C)(C)C)ccc2[nH]1` (single isomer, unassigned) [Example 103], the IC50 was 15.4 nM.

In the case of `C[C@H](C(N)=O)[C@H](N)c1nc2cc(C(C)(C)C)ccc2[nH]1` (single isomer, unassigned) [Example 104], the IC50 is 1580 nM.

For `N#Cc1ccc(-c2ccc3[nH]c([C@@H]4C[C@@H](O)CN4)nc3c2)cc1` (stereo in doubt) [Example 46, 4-{2-[(2S,4R)-4-Hydroxypyrrolidin-2-yl]-1H-benzimidazol-5-yl}benzonitrile], the IC50 is 713 nM.

As to `CC(C)CC[C@H](N)c1nc2cc(C(C)(C)C)ccc2[nH]1` [Example 1, (1S)-1-(5-tert-Butyl-1H-benzimidazol-2-yl)-4-methylpentan-1-amine], the IC50 is 127 nM.

Regarding `CC(C)(C)c1ccc2[nH]c(C3(N)Cc4ccccc4C3)nc2c1` [Example 2, 2-(5-tert-Butyl-1H-benzimidazol-2-yl)-2,3-dihydro-1H-inden-2-amine], the IC50 was 76 nM.

With `CC(C)(C)c1ccc2[nH]c([C@@H](N)C3CCCC3)nc2c1` [Example 3, (S)-1-(5-tert-Butyl-1H-benzimidazol-2-yl)-1-cyclopentylmethanamine], the IC50 is 12.5 nM.

Consider `CC(C)(C)c1ccc2[nH]c(C3(N)CCC3)nc2c1` [Example 4, 1-(5-tert-Butyl-1H-benzimidazol-2-yl)cyclobutanamine], for which the IC50 is 447 nM.

Consider `CC(C)[C@H](N)c1nc2cc(C(C)(C)C)ccc2[nH]1` [Example 5, (1S)-1-(5-tert-Butyl-1H-benzimidazol-2-yl)-2-methylpropan-1-amine], for which the IC50 was 364 nM.

Consider `CC(C)(C)c1ccc2[nH]c([C@@H](N)C(C)(C)C)nc2c1` [Example 6, (1S)-1-(5-tert-Butyl-1H-benzimidazol-2-yl)-2,2-dimethylpropan-1-amine], for which the IC50 is 433 nM.

In the case of `C[C@H](N)c1nc2cc(C(C)(C)C)ccc2[nH]1` [Example 7, (1S)-1-(5-tert-Butyl-1H-benzimidazol-2-yl)ethanamine], the IC50 is 439 nM.

On to `CC(C)C[C@@H](N)c1nc2cc(C(C)(C)C)ccc2[nH]1` [Example 8, (1R)-1-(5-tert-Butyl-1H-benzimidazol-2-yl)-3-methylbutan-1-amine], for which the IC50 is 108 nM.

As for `CC(C)[C@@H](N)c1nc2cc(C(C)(C)C)ccc2[nH]1` [Example 9, (1R)-1-(5-tert-Butyl-1H-benzimidazol-2-yl)-2-methylpropan-1-amine], the IC50 is 347 nM.

As to `C[C@@H](N)c1nc2cc(C(C)(C)C)ccc2[nH]1` [Example 10, (1R)-1-(5-tert-Butyl-1H-benzimidazol-2-yl)ethanamine], the IC50 is 607 nM.

Regarding `CCCC[C@H](N)c1nc2cc(C(C)(C)C)ccc2[nH]1` [Example 11, (1S)-1-(5-tert-Butyl-1H-benzimidazol-2-yl)pentan-1-amine], the IC50 is 29.7 nM.

`COC[C@H](N)c1nc2cc(C(C)(C)C)ccc2[nH]1` [Example 12, (1R)-1-(5-tert-Butyl-1H-benzimidazol-2-yl)-2-methoxyethanamine]: the IC50 was 243 nM.

As for `CC(C)(C)c1ccc2[nH]c(C3(N)CCCC3)nc2c1` [Example 13, 1-(5-tert-Butyl-1H-benzimidazol-2-yl)cyclopentanamine], the IC50 is 496 nM.

Take `CC(C)C[C@H](N)c1nc2cc(C(C)(C)C)ccc2[nH]1` [Example 14, (1S)-1-(5-tert-Butyl-1H-benzimidazol-2-yl)-3-methylbutan-1-amine]: the IC50 was 476 nM.

For `CC(C)(C)c1ccc2[nH]c([C@H](N)C(C)(C)C)nc2c1` [Example 15, (1R)-1-(5-tert-Butyl-1H-benzimidazol-2-yl)-2,2-dimethylpropan-1-amine], the IC50 was 123 nM.

Regarding `C[C@H](O)[C@@H](N)c1nc2cc(C(C)(C)C)ccc2[nH]1` [Example 16, (1S,2S)-1-Amino-1-(5-tert-butyl-1H-benzimidazol-2-yl)propan-2-ol], the IC50 was 2510 nM.
